What was measured:
[1] = target: Insulin-like growth factor 1 receptor (Homo sapiens) (UniProt P08069); experiment: Inhibition of recombinant human N-terminal His6-tagged IGF1R (959 to end residues) expressed in baculovirus infected Sf21 insect cells at 2 uM relative to control
[2] = target: Mitogen-activated protein kinase kinase kinase 5 (Homo sapiens) (UniProt Q99683); experiment: Inhibition of recombinant N-terminal GST-tagged/C-terminal His6-tagged human ASK1 (649 to 946 residues) expressed in Escherichia coli at 2 uM using MBP as substrate relative to control
[3] = target: Serine/threonine-protein kinase Sgk1 (Homo sapiens) (UniProt O00141); experiment: Inhibition of SGK (unknown origin) at 2 uM relative to control
[4] = target: Hepatocyte growth factor receptor (Homo sapiens, UniProt P08581); experiment: Inhibition of c-MET in human SNU-5 cells measured after 6 hrs by steady-glo luciferase reporter gene assay; type: cell-based
[5] = target: Tyrosine-protein kinase ZAP-70 (Homo sapiens) (UniProt P43403); experiment: Inhibition of recombinant human full-length C-terminal His6-tagged ZAP70 expressed in Sf21 insect cells at 2 uM using poly (Glu4-Tyr) (4:1) as substrate relative to control
[6] = target: Tyrosine-protein kinase Lck (Homo sapiens) (UniProt P06239); experiment: Inhibition of recombinant human full-length N-terminal His6-tagged LCK expressed in baculovirus infected Sf21 insect cells at 2 uM relative to control
[7] = target: Mitogen-activated protein kinase 8 (Homo sapiens) (UniProt P45983); experiment: Inhibition of recombinant human full-length N-terminal His-tagged JNK1alpha1 ([…]) expressed in Sf21 insect cells at 2 uM using ATF2 (19 to 96 residues) as substrate relative to control
[8] = target: Proto-oncogene tyrosine-protein kinase Src (Homo sapiens, UniProt P12931); experiment: Inhibition of SRC (unknown origin)
[9] = target: Epidermal growth factor receptor (Homo sapiens) (UniProt P00533); experiment: Inhibition of recombinant human N-terminal GST-tagged EGFR (696 to end residues) expressed in baculovirus infected Sf21 insect cells at 2 uM using angiotensin II peptide as substrate relative to control
[10] = target: Ephrin type-B receptor 4 (Homo sapiens) (UniProt P54760); experiment: Inhibition of recombinant human N-terminal GST-tagged EphB4 (561 to end residues) expressed in baculovirus infected Sf21 insect cells at 2 uM using poly (Glu,Tyr) (4:1) as substrate relative to control
[11] = target: Tyrosine-protein kinase Fes/Fps (Homo sapiens) (UniProt P07332); experiment: Inhibition of recombinant human N-terminal His6-tagged FES (561 to end residues) expressed in baculovirus infected Sf21 insect cells at 2 uM using poly (Glu,Tyr) (4:1) as substrate relative to control
[12] = Unbound intrinsic clearance in human hepatocytes assessed per million cells; type: ADME, cell-based, Hepatocyte
[13] = target: MAP kinase-activated protein kinase 5 (Homo sapiens) (UniProt Q8IW41); experiment: Inhibition of recombinant human N-terminal His6-tagged full-length PRAK expressed in baculovirus infected Sf21 insect cells at 2 uM using PRAK substrate peptide relative to control
[14] = target: Vascular endothelial growth factor receptor 2 (Homo sapiens, UniProt P35968); experiment: Inhibition of KDR (unknown origin)
[15] = target: Vascular endothelial growth factor receptor 1 (Homo sapiens) (UniProt P17948); experiment: Inhibition of recombinant human N-terminal GST-tagged FLT1 (783 to end residues) expressed in baculovirus infected Sf21 insect cells at 2 uM using KKKSPGEYVNIEFG as substrate relative to control
[16] = target: Serine/threonine-protein kinase Nek2 (Homo sapiens) (UniProt P51955); experiment: Inhibition of recombinant human N-terminal His6-tagged NEK2 expressed in baculovirus infected Sf21 insect cells at 2 uM using MBP as substrate relative to control
[17] = target: Inhibitor of nuclear factor kappa-B kinase subunit alpha (Homo sapiens) (UniProt O15111); experiment: Inhibition of IKKa (unknown origin) at 2 uM relative to control
[18] = target: Serine/threonine-protein kinase N2 (Homo sapiens) (UniProt Q16513); experiment: Inhibition of PRK2 (unknown origin) at 2 uM relative to control
[19] = target: Dual specificity mitogen-activated protein kinase kinase 1 (Homo sapiens) (UniProt Q02750); experiment: Inhibition of recombinant human N-terminal GST-tagged/C-terminal His6-tagged full-length MEK1 expressed in Escherichia coli at 2 uM using MBP as substrate relative to control
[20] = organism: Homo sapiens; experiment: Selectivity ratio of IC50 for inhibition of recombinant human N-terminal GST/His-tagged PDE3A (669 to 1141 residues) expressed in baculovirus infected Sf9 insect cells to IC50 for inhibition of c-MET in human SNU-5 cells
[21] = target: Tyrosine-protein kinase Blk (Homo sapiens) (UniProt P51451); experiment: Inhibition of recombinant N-terminal His6-tagged human full-length BLK expressed in Sf21 insect cells at 2 uM using Poly (Glu4-Tyr) (4:1) as substrate relative to control
[22] = target: Ribosomal protein S6 kinase alpha-2 (Homo sapiens) (UniProt Q15349); experiment: Inhibition of recombinant human N-terminal full-length His6-tagged RSK3 ([…]) expressed in Sf21 insect cells at 2 uM using MAPKAP Kinase 2 as substrate relative to control
[23] = target: Ribosomal protein S6 kinase alpha-5 (Homo sapiens) (UniProt O75582); experiment: Inhibition of recombinant human N-terminal His6-tagged MSK1 (2 to end residues) expressed in baculovirus infected Sf21 insect cells at 2 uM using Crosstide as substrate relative to control
[24] = target: Proto-oncogene tyrosine-protein kinase receptor Ret (Homo sapiens) (UniProt P07949); experiment: Inhibition of recombinant human N-terminal GST-tagged RET (658 to end residues) expressed in baculovirus infected Sf21 insect cells at 2 uM using IFG1Rtide as substrate relative to control
[25] = target: Proto-oncogene tyrosine-protein kinase ROS (Homo sapiens) (UniProt P08922); experiment: Inhibition of recombinant human N-terminal His6-tagged ROS (1883 to end residues) expressed in baculovirus infected Sf21 insect cells at 2 uM using KKKSPGEYVNIEFG as substrate relative to control
[26] = target: cGMP-inhibited 3',5'-cyclic phosphodiesterase 3A (Homo sapiens, UniProt Q14432); experiment: Inhibition of recombinant human N-terminal GST/His-tagged PDE3A (669 to 1141 residues) expressed in baculovirus infected Sf9 insect cells using iFL-cAMP as substrate preincubated for 15 mins followed by substrate addition and measured after 40 mins by fluorescence assay
[27] = target: Tyrosine-protein kinase receptor TYRO3 (Homo sapiens, UniProt Q06418); experiment: Inhibition of SKY (unknown origin)
[28] = target: Tyrosine-protein kinase BTK (Homo sapiens) (UniProt Q06187); experiment: Inhibition of recombinant N-terminal His6-tagged human full-length BTK expressed in Sf21 insect cells at 2 uM using Src peptide as substrate relative to control

Chain of cGMP-inhibited 3',5'-cyclic phosphodiesterase 3A (Q14432 whole entry, the tested form may be a part): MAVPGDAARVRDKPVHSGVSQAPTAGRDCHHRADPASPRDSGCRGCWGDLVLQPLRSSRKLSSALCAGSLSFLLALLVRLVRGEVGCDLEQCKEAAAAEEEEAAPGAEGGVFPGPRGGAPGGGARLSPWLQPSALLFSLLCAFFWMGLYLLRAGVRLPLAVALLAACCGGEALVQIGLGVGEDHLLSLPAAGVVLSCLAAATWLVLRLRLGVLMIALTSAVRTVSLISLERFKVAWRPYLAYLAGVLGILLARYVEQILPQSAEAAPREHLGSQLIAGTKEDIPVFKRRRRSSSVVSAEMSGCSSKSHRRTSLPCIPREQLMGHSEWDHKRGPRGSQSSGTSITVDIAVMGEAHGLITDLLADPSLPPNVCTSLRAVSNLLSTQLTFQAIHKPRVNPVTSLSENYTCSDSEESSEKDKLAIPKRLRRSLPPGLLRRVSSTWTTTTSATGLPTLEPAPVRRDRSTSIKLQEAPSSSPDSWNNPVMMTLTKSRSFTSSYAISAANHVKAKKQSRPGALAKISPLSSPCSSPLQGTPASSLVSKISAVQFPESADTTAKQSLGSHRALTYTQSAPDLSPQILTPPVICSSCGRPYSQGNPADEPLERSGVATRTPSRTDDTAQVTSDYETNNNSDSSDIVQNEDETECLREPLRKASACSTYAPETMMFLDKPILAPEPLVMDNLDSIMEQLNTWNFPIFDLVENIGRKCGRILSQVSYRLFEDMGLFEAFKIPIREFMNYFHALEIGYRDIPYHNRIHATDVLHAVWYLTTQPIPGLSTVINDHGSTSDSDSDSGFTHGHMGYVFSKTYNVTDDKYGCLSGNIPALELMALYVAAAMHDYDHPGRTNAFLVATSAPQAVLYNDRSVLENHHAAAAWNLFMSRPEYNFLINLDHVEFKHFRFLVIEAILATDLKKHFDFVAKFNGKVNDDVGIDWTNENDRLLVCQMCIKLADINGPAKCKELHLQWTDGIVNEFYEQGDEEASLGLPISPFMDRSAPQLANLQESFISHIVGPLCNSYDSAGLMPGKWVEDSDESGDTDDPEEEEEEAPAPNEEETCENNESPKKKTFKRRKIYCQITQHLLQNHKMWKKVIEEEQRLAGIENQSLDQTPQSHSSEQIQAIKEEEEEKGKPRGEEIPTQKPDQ
Chain of MAP kinase-activated protein kinase 5 (Homo sapiens) (Q8IW41 whole entry): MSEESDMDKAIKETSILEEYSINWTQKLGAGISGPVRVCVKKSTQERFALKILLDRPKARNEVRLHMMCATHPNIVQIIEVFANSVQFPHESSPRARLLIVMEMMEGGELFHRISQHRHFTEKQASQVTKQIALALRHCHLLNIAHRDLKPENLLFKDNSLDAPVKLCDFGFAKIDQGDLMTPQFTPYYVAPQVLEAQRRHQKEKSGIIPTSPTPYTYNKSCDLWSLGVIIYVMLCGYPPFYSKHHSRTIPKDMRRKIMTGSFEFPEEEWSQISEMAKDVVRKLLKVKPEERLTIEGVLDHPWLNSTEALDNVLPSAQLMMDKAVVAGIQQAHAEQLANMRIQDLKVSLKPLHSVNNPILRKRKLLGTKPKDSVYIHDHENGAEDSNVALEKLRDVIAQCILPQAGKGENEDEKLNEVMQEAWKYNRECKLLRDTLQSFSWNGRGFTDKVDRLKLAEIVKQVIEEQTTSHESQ
Chain of Inhibitor of nuclear factor kappa-B kinase subunit alpha (Homo sapiens) (O15111 whole entry): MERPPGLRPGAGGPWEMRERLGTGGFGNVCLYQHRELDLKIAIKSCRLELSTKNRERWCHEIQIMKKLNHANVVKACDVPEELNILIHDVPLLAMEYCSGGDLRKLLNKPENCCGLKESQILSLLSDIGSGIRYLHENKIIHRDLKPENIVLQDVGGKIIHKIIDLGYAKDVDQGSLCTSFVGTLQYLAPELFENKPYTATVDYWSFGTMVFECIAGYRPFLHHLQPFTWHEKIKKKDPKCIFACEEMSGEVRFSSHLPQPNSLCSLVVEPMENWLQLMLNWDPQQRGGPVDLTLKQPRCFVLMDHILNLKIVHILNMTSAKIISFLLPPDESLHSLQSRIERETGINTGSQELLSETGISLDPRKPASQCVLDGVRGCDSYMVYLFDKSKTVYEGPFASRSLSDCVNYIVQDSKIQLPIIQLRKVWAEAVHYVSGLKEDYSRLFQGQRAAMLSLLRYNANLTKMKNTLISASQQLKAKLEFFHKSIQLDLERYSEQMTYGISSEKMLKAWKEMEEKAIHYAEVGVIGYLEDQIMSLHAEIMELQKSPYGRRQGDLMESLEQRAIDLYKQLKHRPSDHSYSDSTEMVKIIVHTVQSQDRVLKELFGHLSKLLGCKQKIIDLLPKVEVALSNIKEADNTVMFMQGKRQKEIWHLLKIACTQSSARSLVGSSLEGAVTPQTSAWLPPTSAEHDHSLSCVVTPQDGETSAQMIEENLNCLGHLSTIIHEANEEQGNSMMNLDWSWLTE
Chain of Serine/threonine-protein kinase Nek2 (Homo sapiens) (P51955 whole entry): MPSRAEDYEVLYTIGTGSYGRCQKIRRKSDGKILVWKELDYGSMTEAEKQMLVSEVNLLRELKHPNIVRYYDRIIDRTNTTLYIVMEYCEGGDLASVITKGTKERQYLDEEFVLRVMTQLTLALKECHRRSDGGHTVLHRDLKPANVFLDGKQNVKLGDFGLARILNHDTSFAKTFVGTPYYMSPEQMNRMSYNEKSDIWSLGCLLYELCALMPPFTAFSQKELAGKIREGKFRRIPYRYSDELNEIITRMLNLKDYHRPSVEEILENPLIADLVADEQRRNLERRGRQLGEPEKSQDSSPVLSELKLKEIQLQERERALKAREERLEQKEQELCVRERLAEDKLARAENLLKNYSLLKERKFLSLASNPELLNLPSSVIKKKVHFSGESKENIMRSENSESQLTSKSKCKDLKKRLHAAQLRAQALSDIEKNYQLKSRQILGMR
Chain of Vascular endothelial growth factor receptor 1 (Homo sapiens) (P17948 whole entry): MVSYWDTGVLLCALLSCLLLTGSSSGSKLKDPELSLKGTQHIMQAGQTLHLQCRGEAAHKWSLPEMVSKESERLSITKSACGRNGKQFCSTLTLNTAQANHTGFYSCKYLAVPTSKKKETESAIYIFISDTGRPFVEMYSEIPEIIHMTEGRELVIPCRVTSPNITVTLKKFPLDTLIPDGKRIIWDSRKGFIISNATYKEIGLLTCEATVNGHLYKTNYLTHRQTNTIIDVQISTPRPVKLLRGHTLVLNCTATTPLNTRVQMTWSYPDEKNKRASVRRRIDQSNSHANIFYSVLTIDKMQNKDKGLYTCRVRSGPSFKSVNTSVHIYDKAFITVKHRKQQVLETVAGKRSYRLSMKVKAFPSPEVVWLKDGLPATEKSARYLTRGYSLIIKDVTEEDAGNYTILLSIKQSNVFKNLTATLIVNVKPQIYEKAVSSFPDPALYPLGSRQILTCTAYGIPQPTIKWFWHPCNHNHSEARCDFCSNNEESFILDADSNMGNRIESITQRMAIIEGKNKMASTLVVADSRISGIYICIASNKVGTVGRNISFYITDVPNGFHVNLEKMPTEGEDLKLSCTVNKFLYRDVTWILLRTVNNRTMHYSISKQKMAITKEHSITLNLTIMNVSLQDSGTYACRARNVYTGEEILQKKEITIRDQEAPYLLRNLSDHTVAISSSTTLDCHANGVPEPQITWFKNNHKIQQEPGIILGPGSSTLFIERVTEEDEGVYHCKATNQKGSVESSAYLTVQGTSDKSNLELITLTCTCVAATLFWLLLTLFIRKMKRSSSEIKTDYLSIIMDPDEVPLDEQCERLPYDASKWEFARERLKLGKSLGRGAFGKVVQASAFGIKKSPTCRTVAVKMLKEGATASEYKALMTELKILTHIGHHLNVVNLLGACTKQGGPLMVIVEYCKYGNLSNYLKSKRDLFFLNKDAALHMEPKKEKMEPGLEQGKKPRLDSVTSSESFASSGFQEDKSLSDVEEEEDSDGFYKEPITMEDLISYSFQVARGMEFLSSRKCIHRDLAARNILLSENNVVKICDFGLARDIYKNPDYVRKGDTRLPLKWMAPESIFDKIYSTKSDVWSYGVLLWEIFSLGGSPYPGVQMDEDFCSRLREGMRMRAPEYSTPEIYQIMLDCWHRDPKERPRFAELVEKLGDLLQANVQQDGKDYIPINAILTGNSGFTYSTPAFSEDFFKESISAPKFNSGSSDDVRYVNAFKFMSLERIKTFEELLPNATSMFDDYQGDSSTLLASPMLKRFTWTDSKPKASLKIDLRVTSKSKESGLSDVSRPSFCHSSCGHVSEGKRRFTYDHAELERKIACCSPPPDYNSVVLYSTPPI
Chain of Tyrosine-protein kinase ZAP-70 (Homo sapiens) (P43403 whole entry): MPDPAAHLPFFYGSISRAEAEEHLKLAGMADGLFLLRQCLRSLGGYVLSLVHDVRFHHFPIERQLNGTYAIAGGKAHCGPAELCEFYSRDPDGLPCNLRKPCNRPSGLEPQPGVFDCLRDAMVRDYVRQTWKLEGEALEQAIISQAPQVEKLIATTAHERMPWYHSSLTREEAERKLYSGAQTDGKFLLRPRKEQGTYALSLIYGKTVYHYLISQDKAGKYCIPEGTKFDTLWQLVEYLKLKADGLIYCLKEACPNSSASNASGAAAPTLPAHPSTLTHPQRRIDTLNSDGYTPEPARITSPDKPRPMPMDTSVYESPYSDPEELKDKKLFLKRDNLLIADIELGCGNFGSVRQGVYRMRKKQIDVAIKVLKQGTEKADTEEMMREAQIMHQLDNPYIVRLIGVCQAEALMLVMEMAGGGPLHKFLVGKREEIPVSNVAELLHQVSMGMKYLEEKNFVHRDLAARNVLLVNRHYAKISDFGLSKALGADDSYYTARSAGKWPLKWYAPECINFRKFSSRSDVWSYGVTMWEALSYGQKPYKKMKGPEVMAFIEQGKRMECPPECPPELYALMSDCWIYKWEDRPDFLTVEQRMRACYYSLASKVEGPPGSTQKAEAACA

C[C@@H](c1ccc2ncccc2c1)c1nnc2sc(-c3cnn(C)c3)nn12
inhibition [1]: < 50%
inhibition [2]: < 50%
inhibition [3]: < 50%
IC50 [4]: 20 nM
inhibition [5]: < 50%
inhibition [6]: < 50%
inhibition [7]: < 50%
Ki [8]: > 4000 nM
inhibition [9]: < 50%
inhibition [10]: < 50%
inhibition [11]: < 50%
CL free [12]: 5.1 µL/min
inhibition [13]: < 50%
Ki [14]: > 4000 nM
inhibition [15]: < 50%
inhibition [16]: < 50%
inhibition [17]: < 50%
inhibition [18]: < 50%
inhibition [19]: < 50%
Ratio IC50 [20]: 25
inhibition [21]: < 50%
inhibition [22]: < 50%
inhibition [23]: < 50%
inhibition [24]: < 50%
inhibition [25]: < 50%
IC50 [26]: 500 nM
Ki [27]: > 4000 nM
inhibition [28]: < 50%

Source: ChEMBL document CHEMBL4706768, “Discovery of Potent, Selective Triazolothiadiazole-Containing c-Met Inhibitors” (ACS Med Chem Lett, 2021)
